Test results as given in ChEMBL document CHEMBL1201862, “PubChem BioAssay data set” (2004).
Activity calls are given as the source filed them.

What was measured:
[1] = molecular target: Large T antigen (Simian virus 40, UniProt P03070); assay type: functional, Betapolyomavirus macacae;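 also: Confirmatory-stage PubChem screen for compounds that inhibit SV40 T antigen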
[2] = tested on: H9c2; assay: cells; assay type: functional, cell-based; conditions: Rattus norvegicus, H9c2, Myocardium;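 also: confirmatory concentration-response retest of ultra-high-throughput screening hits for modulation of myocardial damage; cell death induced by hydrogen peroxide oxidative stress; compound pretreatment for 60 min then peroxide exposure for 2 h; potency is for protecting the cells against peroxide damage rather than for killing them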
[3] = Luminescence Cell-Based Dose Confirmation HTS to Identify Inhibitors of Platelet Dense Granule Release. [Related pubchem assays: 1663 (Primary HTS), 1678 (Summary of Project)]; assay type: functional
[4] = molecular target: Luciferin 4-monooxygenase (Photinus pyralis, UniProt P08659); assay: inhibition of purified Photinus pyralis luciferase – biochemical, luminescence, dose response (AID 1891)
[5] = molecular target: T1, Protein skinhead-1 (Caenorhabditis elegans, UniProt P34707); assay type: functional
T1 sequence (P34707 whole entry): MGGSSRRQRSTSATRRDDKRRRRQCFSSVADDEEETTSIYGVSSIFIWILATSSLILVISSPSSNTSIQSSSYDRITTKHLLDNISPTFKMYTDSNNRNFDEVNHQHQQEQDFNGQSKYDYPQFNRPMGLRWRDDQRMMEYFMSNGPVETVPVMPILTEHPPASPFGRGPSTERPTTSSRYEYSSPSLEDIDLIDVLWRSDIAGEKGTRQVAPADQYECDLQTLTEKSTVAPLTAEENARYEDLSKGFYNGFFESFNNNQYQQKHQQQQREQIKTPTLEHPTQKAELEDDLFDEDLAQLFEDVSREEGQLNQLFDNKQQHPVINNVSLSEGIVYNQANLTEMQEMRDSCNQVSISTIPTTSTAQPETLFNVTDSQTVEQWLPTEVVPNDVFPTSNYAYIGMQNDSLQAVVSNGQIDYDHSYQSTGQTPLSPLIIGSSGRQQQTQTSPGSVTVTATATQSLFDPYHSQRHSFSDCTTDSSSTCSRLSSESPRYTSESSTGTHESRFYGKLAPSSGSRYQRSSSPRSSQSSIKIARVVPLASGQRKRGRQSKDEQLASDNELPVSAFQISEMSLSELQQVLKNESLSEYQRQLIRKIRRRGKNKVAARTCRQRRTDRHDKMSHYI

[6] = molecular target: Voltage-dependent T-type calcium channel subunit alpha-1H (Homo sapiens, UniProt O95180); assay type: functional;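 also: channel activity triggered by adding a high calcium stimulation buffer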
[7] = molecular target: T2, Protein RecA (Mycobacterium tuberculosis, UniProt P9WHJ3); assay: Fluorescence Cell-Free Homogeneous Dose Retest to Identify Inhibitors of RecA-Intein Splicing Activity. [Related pubchem assays (depositor defined):AID2097, AID2223, AID489010, AID492950]; assay type: functional
T2 sequence (P9WHJ3 whole entry): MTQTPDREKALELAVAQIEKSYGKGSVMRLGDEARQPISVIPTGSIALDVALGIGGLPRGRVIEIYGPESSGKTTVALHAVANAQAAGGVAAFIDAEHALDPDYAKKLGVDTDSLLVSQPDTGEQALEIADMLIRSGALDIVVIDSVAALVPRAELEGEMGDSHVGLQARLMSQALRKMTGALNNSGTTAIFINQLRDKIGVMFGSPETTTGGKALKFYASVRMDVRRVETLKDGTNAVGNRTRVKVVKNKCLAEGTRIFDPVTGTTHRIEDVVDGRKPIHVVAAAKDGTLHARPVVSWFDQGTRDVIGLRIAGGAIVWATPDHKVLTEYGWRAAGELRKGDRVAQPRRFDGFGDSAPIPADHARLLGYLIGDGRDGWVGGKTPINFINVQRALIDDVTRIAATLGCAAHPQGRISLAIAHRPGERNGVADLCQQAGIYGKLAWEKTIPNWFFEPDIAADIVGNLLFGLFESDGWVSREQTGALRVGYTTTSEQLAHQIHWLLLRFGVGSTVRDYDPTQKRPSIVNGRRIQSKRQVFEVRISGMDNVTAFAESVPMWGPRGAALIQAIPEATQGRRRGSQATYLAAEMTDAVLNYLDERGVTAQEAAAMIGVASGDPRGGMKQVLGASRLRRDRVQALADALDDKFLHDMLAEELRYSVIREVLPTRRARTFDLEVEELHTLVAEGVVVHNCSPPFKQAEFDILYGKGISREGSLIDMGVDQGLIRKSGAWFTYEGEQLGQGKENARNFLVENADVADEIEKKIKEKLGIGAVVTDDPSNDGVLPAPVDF

[8] = molecular target: T3, Replicative DNA helicase DnaB (Mycobacterium tuberculosis, UniProt P9WMR3); assay: DnaB intein splicing inhibitors, dose response, biochemical, cell-free fluorescence (AID 449749); assay type: functional
T3 sequence (P9WMR3 whole entry): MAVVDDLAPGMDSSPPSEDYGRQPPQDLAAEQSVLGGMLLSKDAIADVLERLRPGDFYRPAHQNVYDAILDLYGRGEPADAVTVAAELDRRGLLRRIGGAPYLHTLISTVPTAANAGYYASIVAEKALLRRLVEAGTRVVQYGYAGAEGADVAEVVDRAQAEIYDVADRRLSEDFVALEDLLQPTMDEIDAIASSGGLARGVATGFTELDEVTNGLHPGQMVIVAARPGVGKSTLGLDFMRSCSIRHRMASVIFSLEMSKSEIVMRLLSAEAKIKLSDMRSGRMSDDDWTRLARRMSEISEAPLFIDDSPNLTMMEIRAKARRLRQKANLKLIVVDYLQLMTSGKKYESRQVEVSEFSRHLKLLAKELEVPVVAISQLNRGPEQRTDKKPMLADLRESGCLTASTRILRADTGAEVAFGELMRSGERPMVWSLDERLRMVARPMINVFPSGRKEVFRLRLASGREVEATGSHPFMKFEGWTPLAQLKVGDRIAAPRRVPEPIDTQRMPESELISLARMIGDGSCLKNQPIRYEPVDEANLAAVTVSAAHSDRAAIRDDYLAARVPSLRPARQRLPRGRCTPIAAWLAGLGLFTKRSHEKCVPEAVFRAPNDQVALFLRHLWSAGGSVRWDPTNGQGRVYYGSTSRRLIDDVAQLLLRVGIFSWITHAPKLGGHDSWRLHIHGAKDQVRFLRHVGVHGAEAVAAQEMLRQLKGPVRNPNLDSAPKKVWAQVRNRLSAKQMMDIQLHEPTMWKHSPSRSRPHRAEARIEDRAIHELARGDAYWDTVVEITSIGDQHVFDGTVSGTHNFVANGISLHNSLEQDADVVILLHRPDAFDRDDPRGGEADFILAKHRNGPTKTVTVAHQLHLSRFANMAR

[9] = molecular target: T4, Rac GTPase-activating protein 1 (Homo sapiens, UniProt Q9H0H5); assay: blockers of MgcRacGAP-driven Rac1 GTP hydrolysis – biochemical, ADP Hunter fluorescence, primary and confirmatory, confirmation (AID 624330); assay type: functional
T4 sequence (Q9H0H5 whole entry): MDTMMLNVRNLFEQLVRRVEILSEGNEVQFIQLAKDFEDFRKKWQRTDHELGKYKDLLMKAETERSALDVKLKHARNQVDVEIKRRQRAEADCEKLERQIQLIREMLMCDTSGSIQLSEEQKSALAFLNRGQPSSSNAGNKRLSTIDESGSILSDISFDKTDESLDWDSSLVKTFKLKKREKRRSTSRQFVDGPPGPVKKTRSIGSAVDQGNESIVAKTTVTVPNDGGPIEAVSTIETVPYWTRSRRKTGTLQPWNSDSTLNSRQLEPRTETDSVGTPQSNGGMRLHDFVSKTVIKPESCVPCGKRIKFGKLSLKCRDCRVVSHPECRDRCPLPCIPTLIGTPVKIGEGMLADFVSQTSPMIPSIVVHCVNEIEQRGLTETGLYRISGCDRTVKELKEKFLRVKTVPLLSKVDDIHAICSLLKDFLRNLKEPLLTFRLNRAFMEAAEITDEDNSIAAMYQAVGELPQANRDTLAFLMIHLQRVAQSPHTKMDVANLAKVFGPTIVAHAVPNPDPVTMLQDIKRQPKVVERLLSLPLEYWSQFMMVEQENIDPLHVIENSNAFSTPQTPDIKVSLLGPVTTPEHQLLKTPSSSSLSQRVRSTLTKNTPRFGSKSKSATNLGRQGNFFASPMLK

[10] = molecular target: Cytochrome P450 2D6 (Homo sapiens, UniProt P10635);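 also: CYP2D6 member of a cytochrome P450 panel assay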
[11] = molecular target: T5, Streptokinase A (Streptococcus pyogenes serotype M1, UniProt P10520); assay: viability-normalized secreted streptokinase activity reduction – plasminogen activation absorbance, OD405, dose response (AID 1914); assay type: functional, Streptococcus pyogenes M1 GAS;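 also: secreted streptokinase activity via plasminogen activation per viability signal from cell pellet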
T5 sequence (P10520 whole entry): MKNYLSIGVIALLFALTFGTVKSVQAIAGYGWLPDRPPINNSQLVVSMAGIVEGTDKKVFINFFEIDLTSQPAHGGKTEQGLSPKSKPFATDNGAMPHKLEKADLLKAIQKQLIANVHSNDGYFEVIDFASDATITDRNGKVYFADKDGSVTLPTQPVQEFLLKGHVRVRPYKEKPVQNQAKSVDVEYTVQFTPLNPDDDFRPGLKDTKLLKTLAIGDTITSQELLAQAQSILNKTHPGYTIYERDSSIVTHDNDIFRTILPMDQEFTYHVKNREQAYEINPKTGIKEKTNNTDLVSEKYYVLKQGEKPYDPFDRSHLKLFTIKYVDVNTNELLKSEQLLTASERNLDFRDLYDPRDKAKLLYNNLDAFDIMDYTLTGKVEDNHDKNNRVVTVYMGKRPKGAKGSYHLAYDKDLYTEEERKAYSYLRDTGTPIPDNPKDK

[12] = tested on: Streptococcus; assay: GAS UMAA2166 growth inhibition – luminescence, BacTiterGlo, counter-screen for streptokinase expression inhibitor project, dose response (AID 1915); assay type: functional, organism-based;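 also: potency for reduction of bacterial viability or growth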
[13] = tested on: Streptococcus sp. 'group A'; assay: Streptococcus pyogenes SK(-)GAS viability under kanamycin – luminescence, BacTiterGlo, confirmation, counter-screen for streptokinase expression inhibitor project, dose response (AID 1900); assay type: functional, organism-based
[14] = molecular target: Paired box protein Pax-8 (Homo sapiens, UniProt Q06710); assay: PAX8 transcriptional activity inhibition in RMG-I – RMG-I cells, luciferase, cherry-pick, dose response (AID 687027); assay type: functional, cell-based;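 also: luciferase reporter driven by Pax8 target thyroperoxidase promoter measured by SteadyGlo luminescence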
[15] = molecular target: Heat shock protein HSP 90-alpha (Homo sapiens, UniProt P07900); assay type: functional, organism-based
[16] = cells; assay type: functional, cell-based
[17] = cells; assay type: functional, cell-based; remark: listed apart in the source

Chain of Large T antigen (P03070 whole entry): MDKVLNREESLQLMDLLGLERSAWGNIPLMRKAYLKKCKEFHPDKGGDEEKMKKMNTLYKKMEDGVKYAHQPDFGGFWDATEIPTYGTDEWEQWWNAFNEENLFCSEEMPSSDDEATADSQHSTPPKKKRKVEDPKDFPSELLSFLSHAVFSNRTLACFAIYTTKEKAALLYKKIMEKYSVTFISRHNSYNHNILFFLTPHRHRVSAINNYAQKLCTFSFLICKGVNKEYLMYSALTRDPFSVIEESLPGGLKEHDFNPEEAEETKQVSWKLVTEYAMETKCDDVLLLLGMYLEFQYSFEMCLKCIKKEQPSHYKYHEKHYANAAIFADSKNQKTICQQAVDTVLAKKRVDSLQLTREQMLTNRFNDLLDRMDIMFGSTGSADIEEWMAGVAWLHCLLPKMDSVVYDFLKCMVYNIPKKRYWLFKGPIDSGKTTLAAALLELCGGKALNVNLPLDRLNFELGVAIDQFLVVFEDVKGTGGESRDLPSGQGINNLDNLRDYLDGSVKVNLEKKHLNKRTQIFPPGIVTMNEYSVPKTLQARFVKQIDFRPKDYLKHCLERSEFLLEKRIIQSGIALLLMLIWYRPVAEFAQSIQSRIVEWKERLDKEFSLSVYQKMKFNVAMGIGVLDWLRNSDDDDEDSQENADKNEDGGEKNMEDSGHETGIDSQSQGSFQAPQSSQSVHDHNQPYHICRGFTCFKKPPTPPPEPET
Chain of Paired box protein Pax-8 (Q06710 whole entry): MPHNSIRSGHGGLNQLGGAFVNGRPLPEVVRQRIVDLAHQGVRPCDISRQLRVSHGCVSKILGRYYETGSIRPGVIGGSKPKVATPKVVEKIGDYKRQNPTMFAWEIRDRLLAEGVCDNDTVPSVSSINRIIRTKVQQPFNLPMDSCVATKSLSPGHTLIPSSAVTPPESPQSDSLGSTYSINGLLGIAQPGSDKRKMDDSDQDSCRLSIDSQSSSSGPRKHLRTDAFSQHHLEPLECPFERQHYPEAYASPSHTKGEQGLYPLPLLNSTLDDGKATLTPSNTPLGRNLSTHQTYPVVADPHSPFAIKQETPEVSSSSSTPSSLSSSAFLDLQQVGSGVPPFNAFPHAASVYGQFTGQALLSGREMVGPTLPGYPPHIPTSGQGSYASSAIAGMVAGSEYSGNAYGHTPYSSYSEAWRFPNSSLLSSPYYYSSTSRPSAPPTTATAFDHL
Chain of Cytochrome P450 2D6 (P10635 whole entry): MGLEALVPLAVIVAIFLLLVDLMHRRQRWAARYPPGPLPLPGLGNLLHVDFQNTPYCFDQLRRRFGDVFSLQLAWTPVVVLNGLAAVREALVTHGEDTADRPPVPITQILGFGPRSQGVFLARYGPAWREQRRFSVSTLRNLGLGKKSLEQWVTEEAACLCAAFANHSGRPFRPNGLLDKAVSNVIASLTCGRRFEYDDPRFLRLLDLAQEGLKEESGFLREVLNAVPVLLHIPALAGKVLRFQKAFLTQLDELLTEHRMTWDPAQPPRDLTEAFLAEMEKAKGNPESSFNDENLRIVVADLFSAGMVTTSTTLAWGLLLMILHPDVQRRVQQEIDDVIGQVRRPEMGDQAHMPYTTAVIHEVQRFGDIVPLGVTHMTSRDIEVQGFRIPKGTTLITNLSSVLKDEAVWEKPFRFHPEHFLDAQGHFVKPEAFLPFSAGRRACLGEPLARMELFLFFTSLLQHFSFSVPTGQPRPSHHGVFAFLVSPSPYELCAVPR
Chain of Luciferin 4-monooxygenase (P08659 whole entry): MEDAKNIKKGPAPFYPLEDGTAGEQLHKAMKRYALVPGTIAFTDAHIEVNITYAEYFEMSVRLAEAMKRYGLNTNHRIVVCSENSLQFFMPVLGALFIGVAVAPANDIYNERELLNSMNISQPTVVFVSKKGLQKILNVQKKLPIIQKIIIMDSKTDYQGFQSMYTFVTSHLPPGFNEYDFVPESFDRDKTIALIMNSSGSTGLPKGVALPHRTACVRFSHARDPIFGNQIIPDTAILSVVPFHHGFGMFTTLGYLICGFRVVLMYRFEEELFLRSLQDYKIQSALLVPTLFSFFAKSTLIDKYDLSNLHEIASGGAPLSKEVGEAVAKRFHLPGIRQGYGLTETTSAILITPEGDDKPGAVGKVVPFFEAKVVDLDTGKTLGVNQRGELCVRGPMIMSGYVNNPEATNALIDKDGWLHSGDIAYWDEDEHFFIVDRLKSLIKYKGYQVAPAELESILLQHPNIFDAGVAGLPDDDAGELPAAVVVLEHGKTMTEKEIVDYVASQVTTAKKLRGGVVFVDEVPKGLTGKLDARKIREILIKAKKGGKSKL
Chain of Voltage-dependent T-type calcium channel subunit alpha-1H (O95180 whole entry): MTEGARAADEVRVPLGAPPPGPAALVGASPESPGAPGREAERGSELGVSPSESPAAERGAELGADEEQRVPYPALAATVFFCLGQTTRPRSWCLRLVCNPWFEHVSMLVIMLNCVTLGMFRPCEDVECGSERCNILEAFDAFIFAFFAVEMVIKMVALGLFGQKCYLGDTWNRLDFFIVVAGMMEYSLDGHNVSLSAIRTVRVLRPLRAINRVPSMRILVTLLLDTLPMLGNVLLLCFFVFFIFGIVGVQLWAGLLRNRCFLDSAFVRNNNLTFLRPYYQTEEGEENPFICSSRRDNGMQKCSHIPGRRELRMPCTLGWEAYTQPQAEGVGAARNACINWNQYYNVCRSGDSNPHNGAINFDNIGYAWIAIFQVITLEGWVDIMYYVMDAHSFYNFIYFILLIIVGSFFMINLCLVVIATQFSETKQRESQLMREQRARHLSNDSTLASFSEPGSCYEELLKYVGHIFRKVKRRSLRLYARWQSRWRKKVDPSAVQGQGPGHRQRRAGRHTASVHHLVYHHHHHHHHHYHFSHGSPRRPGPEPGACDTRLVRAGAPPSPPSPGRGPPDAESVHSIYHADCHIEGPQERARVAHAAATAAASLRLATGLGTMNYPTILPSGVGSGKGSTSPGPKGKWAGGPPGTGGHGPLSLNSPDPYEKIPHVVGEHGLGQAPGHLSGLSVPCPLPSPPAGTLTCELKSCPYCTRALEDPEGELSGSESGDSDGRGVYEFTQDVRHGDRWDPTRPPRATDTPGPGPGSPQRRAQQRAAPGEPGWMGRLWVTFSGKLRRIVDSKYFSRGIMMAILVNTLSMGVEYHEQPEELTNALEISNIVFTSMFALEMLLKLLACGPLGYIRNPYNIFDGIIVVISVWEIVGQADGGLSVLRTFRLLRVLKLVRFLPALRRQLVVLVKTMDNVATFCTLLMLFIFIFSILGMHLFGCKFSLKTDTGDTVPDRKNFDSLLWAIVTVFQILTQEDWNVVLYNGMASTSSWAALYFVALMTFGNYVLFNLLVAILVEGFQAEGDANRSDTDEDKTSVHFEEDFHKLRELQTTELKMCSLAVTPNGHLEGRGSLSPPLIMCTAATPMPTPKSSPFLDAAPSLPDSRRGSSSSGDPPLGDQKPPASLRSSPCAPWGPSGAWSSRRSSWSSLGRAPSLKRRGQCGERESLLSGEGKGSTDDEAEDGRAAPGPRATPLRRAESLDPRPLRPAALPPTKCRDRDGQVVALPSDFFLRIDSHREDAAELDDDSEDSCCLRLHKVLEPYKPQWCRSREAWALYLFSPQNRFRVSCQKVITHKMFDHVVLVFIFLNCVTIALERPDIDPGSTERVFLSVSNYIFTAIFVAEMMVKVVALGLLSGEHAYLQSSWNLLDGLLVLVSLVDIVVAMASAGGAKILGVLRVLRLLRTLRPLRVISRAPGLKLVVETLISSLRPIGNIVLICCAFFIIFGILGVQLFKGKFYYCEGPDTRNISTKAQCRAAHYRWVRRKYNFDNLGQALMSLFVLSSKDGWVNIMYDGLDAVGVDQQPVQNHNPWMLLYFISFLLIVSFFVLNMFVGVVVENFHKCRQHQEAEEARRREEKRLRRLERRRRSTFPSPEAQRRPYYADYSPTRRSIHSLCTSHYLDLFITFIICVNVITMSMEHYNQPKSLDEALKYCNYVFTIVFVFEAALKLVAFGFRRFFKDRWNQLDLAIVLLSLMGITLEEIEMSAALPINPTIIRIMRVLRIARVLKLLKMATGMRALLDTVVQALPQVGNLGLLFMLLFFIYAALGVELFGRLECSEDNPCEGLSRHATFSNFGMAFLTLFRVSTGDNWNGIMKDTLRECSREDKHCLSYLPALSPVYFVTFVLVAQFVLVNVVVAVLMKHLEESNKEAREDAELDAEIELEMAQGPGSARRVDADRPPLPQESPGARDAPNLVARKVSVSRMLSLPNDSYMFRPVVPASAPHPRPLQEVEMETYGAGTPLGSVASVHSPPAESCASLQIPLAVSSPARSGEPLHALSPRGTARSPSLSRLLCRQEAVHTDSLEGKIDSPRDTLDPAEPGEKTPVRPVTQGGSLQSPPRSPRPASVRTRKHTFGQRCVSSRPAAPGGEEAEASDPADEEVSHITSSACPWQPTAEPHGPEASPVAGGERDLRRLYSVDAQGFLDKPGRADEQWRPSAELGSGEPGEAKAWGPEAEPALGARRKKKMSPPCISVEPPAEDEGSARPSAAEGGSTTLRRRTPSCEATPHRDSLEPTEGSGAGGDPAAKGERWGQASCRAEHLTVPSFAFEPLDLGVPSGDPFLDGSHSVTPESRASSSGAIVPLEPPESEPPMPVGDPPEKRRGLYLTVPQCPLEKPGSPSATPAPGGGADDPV

CC(O)CCc1ccc(O)cc1 (centres undefined)
IC50 [1]: 25.4 µM (active)

Cc1cc(C)c(C)c(S(=O)(=O)N2CCN(C(=O)c3cc(O)nc4ccccc34)CC2)c1C
IC50 [2]: > 79 µM (inactive)

COc1ccccc1C(=O)Nc1ccc2c(c1)CCCN2C(=O)c1ccccc1
EC50 [3]: 19.1 µM (active) | EC50 [4]: 0.712 µM (active)

Fc1cc(Br)ccc1COc1ccc(-c2nnco2)cc1
IC50 [5]: > 100 µM (inactive)

CCCCn1nc(C(=O)Oc2ccc3c(C)cc(=O)oc3c2)c2ccccc2c1=O
IC50 [2]: > 79 µM (inactive)

O=C(Cn1[nH]c(=O)c2ccccc2c1=O)OCC(=O)N1CCc2ccccc2C1
IC50 [2]: 28.5 µM (active)

O=C(CSC1=NCCS1)Nc1ccc(S(=O)(=O)N2CCCCCC2)cc1
EC50 [6]: 7.64 µM (active) | EC50 [7]: 10.1 µM (active) | AC50 [8]: 21.8 µM (active)

Cn1c(=O)c2c(nc(Br)n2Cc2ccc3ccccc3c2)n(C)c1=O
IC50 [2]: 13.7 µM (active)

CCOc1nc(-c2ccncc2)nc2ccccc12
IC50 [5]: > 100 µM (inactive)

CCC(C)N(C(=O)COC(=O)Cc1nnc(O)c2ccccc12)C1CCS(=O)(=O)C1 (centres undefined)
IC50 [2]: > 79 µM (inactive)

Brc1ccc(-c2cn3cccnc3n2)cc1
IC50 [5]: > 100 µM (inactive)

CNC(=S)N1CCN(c2ccc(OC)cc2)CC1
IC50 [1]: 34 µM (active)

Clc1ccc(-c2nnc(-c3cccnc3)o2)cc1
IC50 [5]: 30.1 µM (active)

CC1CCCN(C(=O)c2ccncc2)C1 (centres undefined)
IC50 [5]: > 100 µM (inactive)

COc1cc(CNc2ccc3c(c2)CCC3)cc(OC)c1O
IC50 [1]: > 100 µM (active)

Cc1ccccc1NC(=O)CSC1=C(C#N)C(c2ccsc2)CC(=O)N1 (centres undefined)
IC50 [5]: > 100 µM (inactive)

O=C1N=C(NCc2ccccc2)S/C1=C/c1ccc(O)cc1
IC50 [9]: 18.9 µM (active) | IC50 [1]: 11.7 µM (active)

CCCc1nc2ccccc2c(=O)n1-c1ccc(OC)cc1
IC50 [5]: > 100 µM (inactive) | AC50 [10]: 14.1 µM (inconclusive)

Cc1ccc2sc(NNC(=O)c3ccc4c(c3)OCCO4)nc2c1C
EC50 [11]: > 150 µM (not active) | EC50 [12]: 18.3 µM (active) | EC50 [13]: 13 µM (active) | IC50 [2]: 32.5 µM (inactive)

CC1=CC(C)CC(C)OC(=O)CC(c2ccc(O)cc2)NC(=O)C(Cc2c(Br)[nH]c3ccccc23)N(C)C(=O)C(C)NC(=O)C(C)C1 (centres undefined)
AC50 [14]: < 0.26 µM (active) | AC50 [15]: 4.09 µM (active)

C[C@@]12C(=O)Nc3ccc(Br)cc3C(=O)N1[C@H]1c3ccccc3OC[C@@H]1[C@@H]2c1ccccc1
AC50 [15]: 0.427 µM (active)

CC(=O)Nc1cc(-c2cccc(NS(C)(=O)=O)c2)cn2c(-c3cccc(C(C)=O)c3)cnc12
IC50 [2]: 12.8 µM (active)

COc1ccc(CNC(=S)N/N=C/c2ccc(O)c(OC)c2)cc1
EC50 [16]: > 350 µM (not active) | EC50 [17]: > 350 µM (not active) | IC50 [1]: 27.7 µM (active)

Cn1ncc(Cl)c1C(=O)N/N=C/c1ccccn1
IC50 [2]: 71.6 µM (inactive)

COc1cccc(/C=N/Nc2ncnc3scc(-c4ccccc4)c23)c1OC
IC50 [2]: > 79 µM (inactive)

C[C@@H]1CCCCO[C@@H](CN(C)Cc2ccc(Cl)c(Cl)c2)[C@H](C)CN([C@@H](C)CO)C(=O)c2cc(NC(=O)Cc3ccccc3)ccc2O1
AC50 [14]: 4.54 µM (active)

COc1cc([C@@H]2Oc3cc(C4Oc5cc(O)cc(O)c5C(=O)[C@H]4O)ccc3O[C@H]2CO)ccc1O (some centres undefined)
IC50 [1]: 57.5 µM (active)

Cc1nn(-c2ccc([N+](=O)[O-])cc2)c(O)c1/C=N/CCN1CCN(C(=O)c2cccc(F)c2)CC1
AC50 [15]: 5.99 µM (active)
